Reference: PubChem BioAssay AID248 (DTP/NCI, 2004)
Where “and” joins values, the source holds several entries; their conditions need not be identical. Identical values can stand only once. Toxic doses and inconclusive results are not listed. Rule as the data show it: active = T/C of 150% or more; inactive = T/C below 125%.

Test system: L1210 leukemia ip in BDF1 mice, survival T/C
Assay: NCI In Vivo Anticancer Drug Screen. Data for tumor model L1210 Leukemia (intraperitoneal) in B6D2F1 (BDF1) mice
Settings: endpoint: mean survival time, higher = longer survival
Summary of the method: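 Tumor cells were implanted, animals were treated, and survival was followed. The result divides the treated measurement by the vehicle-control measurement.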

[1] = dose: 100.0 mg/kg/injection, schedule: Q04DX003 (ip), vehicle: Klucel (hydroxypropylcellulose) (HPC)
[2] = dose: 200.0 mg/kg/injection, schedule: Q04DX003 (ip), vehicle: Klucel (hydroxypropylcellulose) (HPC)
[3] = dose: 400.0 mg/kg/injection, schedule: Q04DX003 (ip), vehicle: Klucel (hydroxypropylcellulose) (HPC)
[4] = dose: 100.0 mg/kg/injection, schedule: Q01DX001 (ip), vehicle: other
[5] = dose: 100.0 mg/kg/injection, schedule: Q01DX009 (ip), vehicle: saline with Tween-80
[6] = dose: 100.0 mg/kg/injection, schedule: Q04DX003 (ip), vehicle: saline with Tween-80
[7] = dose: 200.0 mg/kg/injection, schedule: Q01DX009 (ip), vehicle: saline with Tween-80
[8] = dose: 200.0 mg/kg/injection, schedule: Q04DX003 (ip), vehicle: saline with Tween-80
[9] = dose: 400.0 mg/kg/injection, schedule: Q01DX009 (ip), vehicle: saline with Tween-80
[10] = dose: 400.0 mg/kg/injection, schedule: Q04DX003 (ip), vehicle: saline with Tween-80
[11] = dose: 50.0 mg/kg/injection, schedule: Q01DX009 (ip), vehicle: saline
[12] = dose: 100.0 mg/kg/injection, schedule: Q01DX009 (ip), vehicle: saline
[13] = dose: 50.0 mg/kg/injection, schedule: Q04DX003 (ip), vehicle: saline
[14] = dose: 200.0 mg/kg/injection, schedule: Q01DX009 (ip), vehicle: saline

Measured: T/C

O=C1c2cc(-c3ccccc3)ccc2C(c2ccccc2)C1NC1CCCCC1 (centres undefined)
inactive: dose: 37.5 mg/kg/injection, schedule: Q01DX001 (ip), vehicle: Klucel (hydroxypropylcellulose) (HPC) 89 % of control | dose: 75.0 mg/kg/injection, schedule: Q01DX001 (ip), vehicle: Klucel (hydroxypropylcellulose) (HPC) 89 % of control | dose: 150.0 mg/kg/injection, schedule: Q01DX001 (ip), vehicle: Klucel (hydroxypropylcellulose) (HPC) 89 % of control

O=C(CS)CS
inactive: dose: 6.25 mg/kg/injection, schedule: Q01DX009 (ip), vehicle: water 102 % of control | dose: 12.5 mg/kg/injection, schedule: Q01DX009 (ip), vehicle: water 114 % of control | dose: 25.0 mg/kg/injection, schedule: Q01DX009 (ip), vehicle: water 98 % of control and 105 % of control | dose: 25.0 mg/kg/injection, schedule: Q04DX003 (ip), vehicle: water 102 % of control | dose: 50.0 mg/kg/injection, schedule: Q01DX009 (ip), vehicle: water 97 % of control and 103 % of control | dose: 50.0 mg/kg/injection, schedule: Q04DX003 (ip), vehicle: water 91 % of control | dose: 100.0 mg/kg/injection, schedule: Q04DX003 (ip), vehicle: water 97 % of control

c1ccc([P+](Cc2cccc(C[P+](c3ccccc3)(c3ccccc3)c3ccccc3)c2)(c2ccccc2)c2ccccc2)cc1
inactive: dose: 1.2 mg/kg/injection, schedule: Q01DX001 (ip), vehicle: acetone 107 % of control | dose: 2.5 mg/kg/injection, schedule: Q01DX001 (ip), vehicle: acetone 99 % of control

O=C(NC1CCCCC1)OC/C=C\c1ccccc1
inactive: dose: 100.0 mg/kg/injection, schedule: Q01DX009 (ip), vehicle: Klucel (hydroxypropylcellulose) (HPC) 101 % of control | [1] 101 % of control | dose: 200.0 mg/kg/injection, schedule: Q01DX009 (ip), vehicle: Klucel (hydroxypropylcellulose) (HPC) 98 % of control | [2] 96 % of control | dose: 400.0 mg/kg/injection, schedule: Q01DX009 (ip), vehicle: Klucel (hydroxypropylcellulose) (HPC) 109 % of control | [3] 102 % of control

O=C(/C=C\c1ccccc1)C(=O)/C=C/c1ccccc1
inactive: dose: 25.0 mg/kg/injection, schedule: Q01DX009 (ip), vehicle: other 93 % of control | dose: 25.0 mg/kg/injection, schedule: Q04DX003 (ip), vehicle: Klucel (hydroxypropylcellulose) (HPC) 105 % of control | dose: 50.0 mg/kg/injection, schedule: Q01DX009 (ip), vehicle: other 98 % of control | dose: 50.0 mg/kg/injection, schedule: Q04DX003 (ip), vehicle: Klucel (hydroxypropylcellulose) (HPC) 94 % of control | [4] 89 % of control | [1] 86 % of control

c1ccc(CCN2CCN(CCc3ccccn3)CC2)nc1
inactive: dose: 100.0 mg/kg/injection, schedule: Q01DX001 (ip), vehicle: saline 98 % of control

CCCCC(=O)N/N=C\c1cc(Cl)cc(Cl)c1
inactive: dose: 100.0 mg/kg/injection, schedule: Q01DX001 (ip), vehicle: carboxymethylcellulose (CMC) 100 % of control | dose: 200.0 mg/kg/injection, schedule: Q01DX001 (ip), vehicle: carboxymethylcellulose (CMC) 93 % of control | dose: 400.0 mg/kg/injection, schedule: Q01DX001 (ip), vehicle: carboxymethylcellulose (CMC) 96 % of control

CCN(CC)Cc1ccccc1COC(=O)c1cccc(Cl)c1
inactive: dose: 100.0 mg/kg/injection, schedule: Q04DX002 (ip), vehicle: Klucel (hydroxypropylcellulose) (HPC) 103 % of control | dose: 200.0 mg/kg/injection, schedule: Q04DX002 (ip), vehicle: Klucel (hydroxypropylcellulose) (HPC) 103 % of control | dose: 400.0 mg/kg/injection, schedule: Q04DX002 (ip), vehicle: Klucel (hydroxypropylcellulose) (HPC) 92 % of control

OCC(O)COc1ccc(Cl)cc1 (centres undefined)
inactive: dose: 100.0 mg/kg/injection, schedule: Q01DX001 (ip), vehicle: saline with Tween-80 98 % of control | [5] 100 % of control and 110 % of control | [6] 98 % of control and 100 % of control | dose: 200.0 mg/kg/injection, schedule: Q01DX001 (ip), vehicle: saline with Tween-80 105 % of control | [7] 96 % of control and 100 % of control | [8] 96 % of control and 103 % of control | dose: 400.0 mg/kg/injection, schedule: Q01DX001 (ip), vehicle: saline with Tween-80 88 % of control | [9] 94 % of control | [10] 100 % of control

COc1ccc(/C=N/n2c(C)cc(C)c(C#N)c2=O)c(OC)c1OC
inactive: [5] 100 % of control | [6] 118 % of control | [7] 91 % of control | [8] 103 % of control | [9] 107 % of control | [10] 106 % of control

CC1CCCNC1C (centres undefined)
inactive: dose: 25.0 mg/kg/injection, schedule: Q01DX009 (ip), vehicle: saline 95 % of control | [11] 103 % of control | [5] 102 % of control | [12] 100 % of control

C/C(CCCCl)=N/N=C(N)N
inactive: dose: 12.5 mg/kg/injection, schedule: Q04DX003 (ip), vehicle: saline 100 % of control | dose: 18.75 mg/kg/injection, schedule: Q01DX009 (ip), vehicle: saline with Tween-80 96 % of control | dose: 25.0 mg/kg/injection, schedule: Q04DX003 (ip), vehicle: saline 110 % of control | dose: 37.5 mg/kg/injection, schedule: Q01DX009 (ip), vehicle: saline with Tween-80 90 % of control | [13] 103 % of control | dose: 75.0 mg/kg/injection, schedule: Q01DX009 (ip), vehicle: saline with Tween-80 94 % of control | dose: 75.0 mg/kg/injection, schedule: Q04DX003 (ip), vehicle: acetone 95 % of control | dose: 110.0 mg/kg/injection, schedule: Q01DX009 (ip), vehicle: saline with Tween-80 98 % of control

C/C=C(\C)C(=NC)Nc1ccc(Cl)c(Cl)c1
inactive: dose: 222.0 mg/kg/injection, schedule: Q01DX Z (ip), vehicle: methylcellulose (MC) 94 % of control | dose: 333.0 mg/kg/injection, schedule: Q01DX Z (ip), vehicle: methylcellulose (MC) 90 % of control

NC(N)=N/N=C\c1cccc(OCc2ccccc2)c1
inactive: dose: 15.0 mg/kg/injection, schedule: Q01DX Z (oral), vehicle: saline 94 % of control | dose: 30.0 mg/kg/injection, schedule: Q01DX Z (oral), vehicle: saline 89 % of control | dose: 60.0 mg/kg/injection, schedule: Q01DX Z (oral), vehicle: saline 93 % of control | dose: 120.0 mg/kg/injection, schedule: Q01DX Z (oral), vehicle: saline 94 % of control

O=[N+]([O-])c1cccc(S(=O)(=O)O)c1
inactive: [11] 93 % of control | [13] 97 % of control | [12] 87 % of control | dose: 100.0 mg/kg/injection, schedule: Q04DX003 (ip), vehicle: saline 96 % of control and 100 % of control | [14] 93 % of control | dose: 200.0 mg/kg/injection, schedule: Q04DX003 (ip), vehicle: saline 100 % of control and 102 % of control | dose: 400.0 mg/kg/injection, schedule: Q04DX003 (ip), vehicle: saline 90 % of control

O=P(NC12CC3CC(CC(C3)C1)C2)(Oc1ccccc1)Oc1ccccc1
inactive: [1] 101 % of control | [2] 97 % of control | [3] 87 % of control

Cc1cc(CO)c(O)c(CO)c1
inactive: [4] 108 % of control | [12] 97 % of control | dose: 200.0 mg/kg/injection, schedule: Q01DX001 (ip), vehicle: other 100 % of control | [14] 103 % of control | dose: 400.0 mg/kg/injection, schedule: Q01DX001 (ip), vehicle: other 103 % of control | dose: 400.0 mg/kg/injection, schedule: Q01DX009 (ip), vehicle: saline 103 % of control

O=C1c2cccc(Sc3ccccc3)c2C(=O)c2c(Sc3ccccc3)cccc21
inactive: [6] 91 % of control | [8] 88 % of control | [10] 91 % of control

O=C(Nc1ccccc1Cl)Nc1ccccc1[N+](=O)[O-]
inactive: dose: 100.0 mg/kg/injection, schedule: Q04DX002 (ip), vehicle: saline + alcohol 111 % of control | dose: 200.0 mg/kg/injection, schedule: Q04DX002 (ip), vehicle: saline + alcohol 100 % of control | dose: 400.0 mg/kg/injection, schedule: Q04DX002 (ip), vehicle: saline + alcohol 96 % of control

CCCCC(N)C(=O)O (centres undefined)
inactive: [1] 98 % of control | [2] 95 % of control | [3] 98 % of control
